Experimental data: ChEMBL document CHEMBL1149539, “Design, synthesis, and biological activity of folate receptor-targeted prodrugs of thiolate histone deacetylase inhibitors” (Bioorg Med Chem Lett, 2007)
Calls of active or inactive are those of the source. The rule behind the calls is not given here.

Columns and labels:
[1] = molecular target: Histone deacetylase; assay: Inhibition of HDAC in HeLa cells in presence of DTT after 30 mins by fluorescent activity assay; type: cell-based, Homo sapiens
[2] = system: MCF7; assay: Growth inhibition of human MCF7 cells after 72 hrs by Alamar Blue assay; type: functional, cell-based
[3] = system: MCF7; assay: Increase in accumulation of acetylated histone H4 in human MCF7 cells after 14 hrs by Western blot analysis; type: functional, cell-based
[4] = system: MCF7; assay: Increase in accumulation of acetylated histone H4 in human MCF7 cells in presence of 100 uM folic acid after 14 hrs by Western blot analysis; type: functional, cell-based
[5] = molecular target: Histone deacetylase; assay: Inhibition of HDAC in HeLa cells after 30 mins by fluorescent activity assay; type: cell-based, Homo sapiens

| Compound | IC50 [1] | Activity [2] | Activity [3] | Activity [4] | IC50 [5] |
| --- | --- | --- | --- | --- | --- |
| NC1=NC(=O)C2N=C(CNc3ccc(C(=O)N[C@@H](CCC(=O)NCCCCCCSSCCCCCCNC(=O)CC[C@H](NC(=O)c4ccc(NCC5=NC6C(=O)N=C(N)N=C6N=C5)cc4)C(=O)O)C(=O)O)cc3)C=NC2=N1 (some centres not stated) | 9 µM | – | – | – | – |
| NC1=NC(=O)C2N=C(CNc3ccc(C(=O)N[C@@H](CCC(=O)NCCSSCCCCCCC(=O)Nc4ncc(-c5ccccc5)s4)C(=O)O)cc3)C=NC2=N1 (some centres not stated) | 0.27 µM | Dose-dependent effect | Active | inactive | – |
| NC1=NC(=O)C2N=C(CNc3ccc(C(=O)N[C@@H](CCC(=O)NCCOCCOCCSSCCCCCCC(=O)Nc4ncc(-c5ccccc5)s4)C(=O)O)cc3)C=NC2=N1 (some centres not stated) | 3 µM | – | – | – | – |
| NC1=NC(=O)C2N=C(CNc3ccc(C(=O)N[C@@H](CCC(=O)NCCCCCCS)C(=O)O)cc3)C=NC2=N1 (some centres not stated) | – | – | – | – | 21 µM |
